Source: PMC11459966, “Oral pharmacokinetics and efficacy of oral phospholipid remdesivir nucleoside prodrugs against SARS-CoV-2 in mice” (Antimicrobial Agents and Chemotherapy, 2024)
“Also recorded” adds a separate entry of the source. Where two headings read alike, the source gives them in different places.

What was measured:
[1] = design: method as in PMID 34937145; conditions: early administration, non-hospitalized high-risk individuals ref 5; cited from earlier work
[2] = system: SARS-CoV-2 isolate USA-WA1/2020; experiment: microbe, parasite or virus in culture; format: cell-based; conditions: for EC50 / EC90: Calu-3 cells, 44–48 hpi
[3] = Cell viability assay (CellTiter-Glo), Vero-TMPRSS2; format: cell-based, African green monkey; conditions: African green monkey, Vero-TMPRSS2 cells, 48 h incubation
Experimental: (§1) Cell viability assays (Table 1) were performed as previously described ([7]). Cells were cultured and seeded as per in vitro antiviral studies in opaque walled 96-well cell culture plates and incubated overnight for Huh7.5, A2T2-A549, and Vero-E6-TMPRSS2 cells and for 2 days for Calu-3 cells. Compounds or controls were added at the indicated concentrations in a total volume of 100 µL, and cells were incubated for 48 h. An equal volume of CellTiter-Glo reagent (Promega, Cat. #G7570) or CellTiter-Glo 2.0 reagent (Promega, Cat. #G9241) was added and mixed, and luminescence was recorded on a Veritas Microplate Luminometer (Turner BioSystems) or a Spark Multimode plate reader (Tecan) according to manufacturer instructions. Percent viability was normalized to DMSO controls, and CC50 values were derived from best fit curves calculated in Prism 10.

[4] = 5-day oral tolerability study with terminal pharmacokinetics in BALB/c mice; format: in vivo; conditions: 80 mg/kg or 100 mg/kg daily PO
Experimental: (§2) Fig 3 Oral RVn prodrugs maintain high serum levels after repeated dosing in mice and hamsters. Multiple-dose oral tolerability and pharmacokinetics in mice and Syrian hamsters: (A and B) 5-day oral tolerability study in BALB/c mice with pharmacokinetics obtained after the final dose. Male 20–22 g mice were given the indicated drugs at (A) 80 mg/kg or (B) 100 mg/kg PO daily in 0.1 M sodium carbonate/bicarbonate pH 9 for 5 days. Plasma was obtained after the last dose at 1, 3, 6, and 12 h (In Vivo Technologies, Moffatt Field, CA). (C) 7-day oral tolerability study in Syrian hamsters with pharmacokinetics obtained after the final dose. […] All plasma samples were analyzed to determine prodrug levels (Aliri Bio, Colorado Springs, CO).
After fortification, 50 µL of plasma was crashed with 400 µL of methanol containing 10 ng/mL of the internal standard (V2066). One hundred fifty microliters of the supernatant was removed and diluted with 150 µL of water in a clean 96 well injection plate.
Chromatography for the prodrugs was performed on a Raptor Biphenyl (2.1 × 50) column at a flow rate of 0.5 mL/min. A gradient method starting at 60% B (0.1% formic acid in 90:10 methanol:acetonitrile) for 30 s and then ramping to 95% B over 2.5 min. This composition was held for 1.0 min before being returned to starting conditions and re-equilibration to 40% A (10 mM ammonium formate with 0.2% formic acid in water).
Oral pharmacokinetic studies were carried out at In Vivo Technologies (Moffatt Field, CA) in male BALB/c mice, 22–23 g under IACUC protocol number IVT-11–010Y12 (LifeSource Animal Care and Use Committee). […] Blood was obtained by facial vein or terminal cardiac puncture at the indicated times and plasma was frozen for analysis. Similar procedures were followed for 5-day tolerability and terminal dose pharmacokinetic studies in mice at oral daily doses of 80 or 100 mg/kg.

[5] = 7-day oral tolerability study with terminal pharmacokinetics in Syrian hamsters; format: in vivo; conditions: 100 mg/kg PO daily, 7 days
Experimental: as §2
A 7-day oral tolerability and terminal pharmacokinetic study in 100–125 g male Syrian hamsters were done at Attentive Sciences (Stillwell, KS), under IACUC approval number 1123–6788. […] Daily clinical observation and weights were obtained. After the day 7 oral dose blood was obtained at the indicated times and plasma was frozen for analysis.

[6] = system: SARS-CoV-2 isolate USA-WA1/2020; design: method as in PMID 37040439; conditions: Calu-3, dotted lines of Fig. 2 and 3 ref 7; read-out: in vitro EC90 for SARS-CoV-2 infection in Calu-3 cells; cited from earlier work
Calu-3 cells = system: Calu-3 cells; design: method as in PMID 37040439; conditions: Calu-3, CellTiter-Glo, previously published, identical conditions ref 7; cited from earlier work
in vivo = conditions: male, BALB/c, mouse
[7] = system: SARS-CoV-2 isolate USA-WA1/2020; experiment: microbe, parasite or virus in culture
[8] = system: SARS-CoV-2 isolate USA-WA1/2020; experiment: microbe, parasite or virus in culture; remark: listed apart in the source
[9] = system: SARS-CoV-2 isolate USA-WA1/2020; experiment: microbe, parasite or virus in culture; remark: listed apart in the source
[10] = Cell viability assay (CellTiter-Glo), A2T2-A549; conditions: human, A2T2-A549 cells
[11] = Single dose PO or IV plasma pharmacokinetics and tolerability in BALB/c mice; conditions: for tolerability of single escalating oral doses: 20, 60 or 180 mg/kg single oral dose
Vero-TMPRSS2 cells = experiment: Cell viability assay (CellTiter-Glo), Vero-TMPRSS2; format: cell-based, African green monkey; conditions: 48 h incubation
Experimental: as §1

[12] = system: SARS-CoV-2 isolate USA-WA1/2020
[13] = system: SARS-CoV-2 isolate USA-WA1/2020; remark: listed apart in the source
[14] = system: SARS-CoV-2 isolate USA-WA1/2020; remark: listed apart in the source
Huh7.5 cells = system: Huh7.5 cells; design: method as in PMID 37040439; conditions: Huh7.5, CellTiter-Glo, previously published, identical conditions ref 7; cited from earlier work
A2T2-A549 cells = experiment: Cell viability assay (CellTiter-Glo), A2T2-A549; conditions: A2T2-A549, CellTiter-Glo, 48 h incubation
[15] = Severe acute respiratory syndrome coronavirus 2
[16] = male, BALB/c, mouse, in vivo, iv, 7 mg/kg
[17] = male, BALB/c, mouse, in vivo, po, 20 mg/kg
[18] = male, BALB/c, mouse, in vivo, po, 60 mg/kg
[19] = male, BALB/c, mouse, in vivo, po, 180 mg/kg
[20] = IV, 7 mg/kg, BALB/c mice, plasma

## CCC(CC)COC(=O)[C@H](C)N[P@](=O)(OC[C@H]1O[C@@](C#N)(c2ccc3c(N)ncnn23)[C@H](O)[C@@H]1O)Oc1ccccc1 [remdesivir]
[1]
  decrease of the risk of hospitalization or death: 87%

## CCCCCCCCCCCCCCCCCCOC[C@H](COP(=O)(O)OC[C@H]1O[C@@](C#N)(c2ccc3c(N)ncnn23)[C@H](O)[C@@H]1O)OCc1ccccc1 [Compound V2043, 1-O-octadecyl-2-O-benzyl-sn-glyceryl-P-RVn]
[2]; [15]
  EC50: 0.168 ± 0.074 µM
  EC90: 0.484 ± 0.142 µM
[3]
  CC50 at 48 h: 82.6 µM
[4]
  tolerability of once-daily oral doses for 5 days: no adverse clinical effects were noted
[5]
  tolerability of seven-day once-daily oral dosing: well tolerated without any appreciable toxicity; also recorded: No ill effects were reported
[6]
  EC90: 0.32 µM
Calu-3 cells
  CC50: 58.3 µM
In vivo; iv, 7 mg/kg
  half-life: 0.7 h
In vivo; po, 20 mg/kg
  CL/F: 4.35 mL/min/kg
  Vd/F: 1.68 L/kg
  half-life: 4.46 h
In vivo; po, 60 mg/kg
  CL/F: 5.57 mL/min/kg
  Vd/F: 3.04 L/kg
  half-life: 6.31 h
In vivo; po, 180 mg/kg
  CL/F: 14.1 mL/min/kg
  Vd/F: 8.61 L/kg
  half-life: 7.06 h
[7]; Severe acute respiratory syndrome coronavirus 2, read-out: EC50 μM ± SD
  EC50: 0.566 ± 0.028 µM
[7]; Severe acute respiratory syndrome coronavirus 2, read-out: EC90 μM ± SD
  EC90: 1.62 ± 0.227 µM
[8]; Severe acute respiratory syndrome coronavirus 2, Huh7.5, read-out: EC50 μM ± SD
  EC50: 0.117 ± 0.009 µM
[8]; Severe acute respiratory syndrome coronavirus 2, Huh7.5, read-out: EC90 μM ± SD
  EC90: 0.293 ± 0.042 µM
[9]; Severe acute respiratory syndrome coronavirus 2, Vero/TMPRSS2, read-out: EC50 μM ± SD
  EC50: 0.104 ± 0.03 µM
[9]; Severe acute respiratory syndrome coronavirus 2, Vero/TMPRSS2, read-out: EC90 μM ± SD
  EC90: 0.248 ± 0.052 µM
[10]
  CC50 at 48 h: > 100 µM
[11]; BALB/c mice
  tolerability of single escalating oral doses: well tolerated with no appreciable adverse effects
[11]; [16]
  AUC: 46.6 µM·h
  Cmax: 96.6 µM
[11]; [17]
  AUC: 90.1 µM·h
  Cmax: 10.6 µM
[11]; [18]
  AUC: 199 µM·h
  Cmax: 20.3 µM
[11]; [19]
  AUC: 211 µM·h
  Cmax: 17 µM

## CCCCCCCCC=CCCCCCCCCOCC(COP(=O)(O)OCC1OC(C#N)(c2ccc3c(N)ncnn23)C(O)C1O)OCc1ccc(OC)c(F)c1 (stereo not drawn) [Compound V2053]
[2]; Calu-3
  Relative activity vs RVn (RVN EC50/Test Compound EC50): 9.0×
[2]
  EC50: 0.074 ± 0.014 µM
  EC90: 0.153 ± 0.047 µM
Vero-TMPRSS2 cells
  CC50: > 100 µM
[4]
  tolerability of once-daily oral doses for 5 days: no adverse clinical effects were noted
[12]; A2T2-A549
  Relative activity vs RVn (RVN EC50/Test Compound EC50): 7.3×
  SI (CC50/EC50): >243
[12]; read-out: EC50 μM ± SD, A2T2-A549 cells, 48 hpi
  EC50: 0.41 ± 0.04 µM
[12]; read-out: EC90 μM ± SD, A2T2-A549 cells, 48 hpi
  EC90: 0.811 ± 0.059 µM
[13]; Huh7.5
  Relative activity vs RVn (RVN EC50/Test Compound EC50): 28.9×
  SI (CC50/EC50): >2,128
[13]; read-out: EC50 μM ± SD, Huh7.5 cells, 48 hpi
  EC50: 0.047 ± 0.015 µM
[13]; read-out: EC90 μM ± SD, Huh7.5 cells, 48 hpi
  EC90: 0.136 ± 0.058 µM
[14]; Vero-TMPRSS2
  Relative activity vs RVn (RVN EC50/Test Compound EC50): 8.0×
  SI (CC50/EC50): >746
[14]; read-out: EC50 μM ± SD, Vero-TMPRSS2 cells, 32 hpi
  EC50: 0.134 ± 0.05 µM
[14]; read-out: EC90 μM ± SD, Vero-TMPRSS2 cells, 32 hpi
  EC90: 0.367 ± 0.139 µM
[6]
  EC90: 0.154 µM
Calu-3 cells
  CC50: 58.7 µM
Huh7.5 cells
  CC50: > 100 µM
A2T2-A549 cells
  CC50: > 100 µM
[11]; BALB/c mice
  tolerability of single escalating oral doses: well tolerated with no appreciable adverse effects
[11]; [20]
  AUC: 9.58 µM·h
  Cmax: 30.2 µM
  T1/2: 0.29 h
[11]; Oral, 20 mg/kg, BALB/c mice
  AUC: 13.60 µM·h
  CL/F: 28 mL/min/kg
  Cmax: 1.78 µM
  T1/2: 6.04 h
  Vd/F: 14.60 L/kg
[11]; Oral, 60 mg/kg, BALB/c mice
  AUC: 53.10 µM·h
  CL/F: 22.3 mL/min/kg
  Cmax: 7.66 µM
  T1/2: 3.44 h
  Vd/F: 6.67 L/kg
[11]; Oral, 180 mg/kg, BALB/c mice
  AUC: 90.80 µM·h
  CL/F: 30.2 mL/min/kg
  Cmax: 12.5 µM
  T1/2: 7.06 h
  Vd/F: 18.50 L/kg
[11]; oral vs IV (7 mg/kg) prodrug exposure, printed on the 20 mg/kg oral lines, BALB/c mice
  F% (oral bioavailability): 51.0%
